# Patent US7485759B2, “Minimization of ligand degradation products, or reversion of same to useful phosphine ligands” (Dow Technology Investments LLC, priority 2003, dated 2009)
# Experiments:
# [1] = Batch hydroformylation of soy oil methyl esters; average rate of phosphonium ligand degradation product formation by 31P NMR (Comparative Experiment 5, Example 5); type: physicochemical; details: 30 psig, reaction time 4 days
# Description: The hydroformylation of soy oil methyl esters was conducted at 100° C. for comparative purposes to illustrate the effect of temperature on the formation of ligand degradation products. Under a nitrogen atmosphere, a hydroformylation catalyst solution was prepared containing Ligand A (2.208 g, 5.866 mmol, initial ligand concentration in the reactor: 0.10M), Rh(CO)2acac (0.0366 g, 0.142 mmol), and 1-methyl-2-pyrrolidone (NMP, 16.05 g). Ligand A, the mono-sulfonated sodium salt of bis(dicyclohexyl)phenylphosphine, has the following structure.
# Also prepared under nitrogen was a neat solution of soybean oil-derived methyl esters (33.95 g, 115.08 mmol), prepared by the transesterification of soybean oil with methanol using standard methods known in the art. Soybean oil contains polyunsaturated esters. Under nitrogen, the catalyst solution was added into a 100 mL stainless steel reactor, and the soy methyl esters were added into a substrate delivery cylinder attached to the reactor. […] The average rate of phosphonium ligand degradation product formation was determined using the NMR data.
# The hydroformylation of soy oil methyl esters was conducted at 85° C. as an example of the invention to illustrate the effect of temperature on the formation of ligand degradation products. […] The average rate of phosphonium ligand degradation product formation was determined using the NMR data.
# [2] = Continuous hydroformylation mini-plant with soy methyl esters; formation rate of phosphonium degradation products (Examples 6-8, Comparative Experiment 6); type: physicochemical
# Description: The formation rate of phosphonium degradation products was measured in a continuous hydroformylation mini-plant, which consisted of a reaction system comprised of three reactors in series and a product/catalyst separation system with catalyst recycle. The reactors were charged with a catalyst solution containing Ligand A (2.5 wt %) shown in Example 5 hereinabove, Rh(CO)2acac (500 ppm Rh), and 20 wt % 1-methyl-2-pyrrolidone (NMP). A mixture of soy methyl esters was fed continuously to the first reactor. The reactors were operated at 600 psig (4,137 kPa) pressure by continuously feeding a gaseous mixture of carbon monoxide and hydrogen (CO:H2=1:1 vol/vol). The reaction was conducted for 153 hours continuously at 85° C. The formation rate of phosphonium degradation products was measured to be 0.02 g/liter/day during this period. The pressure of carbon monoxide and hydrogen (CO:H2=1:1 vol/vol) was then reduced to 400 psig (2,758 kPa) while keeping the temperature and other conditions unchanged. The reaction was conducted for 59 hours, and the formation rate of phosphonium degradation products was measured to be 0.03 g/liter/day during this period. The results illustrate a low rate of phosphonium formation at a pressure greater than 300 psig, and further that phosphonium formation decreases with increasing pressure.
# The formation rate of phosphonium degradation products was measured in a continuous hydroformylation mini-plant similar to the system described in Example 6. The reaction system was charged with a catalyst solution containing Ligand A (2.5 wt %) as shown in Example 5 hereinabove, Rh(CO)2acac (500 ppm Rh), and 20 wt % 1-methyl-2-pyrrolidone (NMP). Soy methyl esters were fed continuously to the reaction system. The reactors were operated at 400 psig (2,758 kPa) pressure by continuously feeding a gaseous mixture of carbon monoxide and hydrogen (CO:H2=1:1 vol/vol). The reaction was conducted continuously for 59 hours with all reactors at 85° C. The formation rate of phosphonium degradation products was measured to be 0.03 g/liter/day during this period.
# For comparative purposes, Example 7 was repeated with the exception that the temperature of the last reactor was increased to 100° C. while keeping the temperature of all other reactors at 85° C. All other conditions remained unchanged. The reaction was conducted for 140 hours and the formation rate of phosphonium degradation products was measured to be 0.07 g/liter/day during this period.
# The formation rate of phosphonium degradation products was measured in a continuous hydroformylation mini-plant similar to the one described in Example 6. The reaction system was charged with a catalyst solution containing Ligand A (2 wt %), Rh(CO)2acac (300 ppm Rh), and 30 wt % 1-methyl-2-pyrrolidone (NMP). Soy methyl esters, were fed continuously to the reaction system. The reactors were operated at 300 psig (2,068 kPa) pressure by continuously feeding a gaseous mixture of carbon monoxide and hydrogen (CO:H2=1:1 vol/vol). The reaction was conducted continuously for 150 hours at 95° C. The formation rate of phosphonium degradation products were measured to be 0.05 g/liter/day during this period. The pressure of the reaction system was increased to 600 psig (4136 kPa), and the temperature of the reaction system was decreased to 85° C., while keeping all other conditions unchanged. The reaction was conducted for 350 hours and the formation rate of phosphonium degradation products was measured to be 0.02 g/liter/day during this period.
compound,measurement,setting,value
"O=S(=O)([O-])c1cccc(P(C2CCCCC2)C2CCCCC2)c1.[Na+] [Ligand A, mono-sulfonated sodium salt of bis(dicyclohexyl)phenylphosphine]",Phosphonium formation rate Average,"[1]; 85° C., initial ligand concentration 0.14 M",0.04 g/L/day
same,Phosphonium formation rate (Average g/L/day),"[1]; 100° C., initial ligand concentration 0.10M",0.1 g/L/day
same,formation rate of phosphonium degradation products,"[2]; Comparative Experiment 6, 400 psig, last reactor 100° C., other reactors 85° C., 140 hours",0.07 g/L/day
same,formation rate of phosphonium degradation products,"[2]; Example 6, 400 psig, 85° C., 59 hours, Ligand A 2.5 wt %",0.03 g/L/day
same,formation rate of phosphonium degradation products,"[2]; Example 6, 600 psig, 85° C., 153 hours, Ligand A 2.5 wt %",0.02 g/L/day
same,formation rate of phosphonium degradation products,"[2]; Example 7, 400 psig, all reactors at 85° C., 59 hours, Ligand A 2.5 wt %",0.03 g/L/day
same,formation rate of phosphonium degradation products,"[2]; Example 8, 300 psig, 95° C., 150 hours, Ligand A 2 wt %",0.05 g/L/day
same,formation rate of phosphonium degradation products,"[2]; Example 8, 600 psig, 85° C., 350 hours, Ligand A 2 wt %",0.02 g/L/day
